“Also recorded” adds a separate entry of the source. Structures can show the parent of a compound that is named as a salt.
Tests used:
Assay type in all cases: in vivo, Vitis vinifera
[1] = system: Crimson Seedless grape clusters; assay: Field study, Example 1: visual rating of red grape coloration, % of berries with marketable color
Method: (§1) A field study was conducted in California to compare the efficacy of S-ABA to 3′-methyl-(S)-ABA in promoting red grape coloration. S-ABA and 3′-methyl-(S)-ABA were formulated as aqueous solutions of the corresponding potassium salt to the desired concentrations with the final pHs being between 6.5 and 7.2. Individual Crimson Seedless grape clusters were selected and tagged, with 20 tagged clusters per treatment. The treatments were applied as cluster-directed sprays using a trigger sprayer at 15 to 20 mL per cluster to ensured good coverage of the grapes. Application of 15 to 20 milliliters per cluster simulates application of about 109 gallons per acre directed at the approximately 40 clusters per vine in a vineyard with 518 vines per acre. Based on these estimates, Applicant determined the approximate grams per acre. The equation is as follows: 20 ml/cluster×40 cluster/vine=800 ml/vine×518 vine/acre=(414,400 ml/acre)/(1000 ml/liter)=414 liters/acre. An estimation of grams per acre was made by multiplying the mg per cluster with 20,720 clusters/acre (40 clusters/vine×518 vines/acre=20,720 clusters/acre).
(§2) Periodically after the treatments, the grape clusters were evaluated for color development by visual ratings over a six-week period. The coloration was graded on a 1 to 8 grading scale, where a rating of 1 has very little or no red color and a rating of 8 has a deep or dark red color. The percentages of berries that reached marketable red coloration for each cluster were averaged and recorded for each treatment. Additionally, representative berries from each treatment group were harvested about four weeks after treatment and analyzed for anthocyanin content.

Crimson Seedless grapes = assay: Trial, Example 2: visual color rating of grape clusters on a 1 to 8 scale; design: key to Color Ratings: 1 = little/no red color, 8 = deep/dark red color; conditions: for Color Ratings: applied day 0 and day 11, 1 to 8 grading scale; for red color development in comparison with the untreated control: six-week evaluation period
Method: Another trial was conducted in California on Crimson Seedless grapes to compare the efficacy of S-ABA, 3′-methyl-(S)-ABA and 3′-propargyl-(S)-ABA in promoting coloration. All three compounds were formulated as aqueous solutions of the corresponding potassium salt to the desired concentrations, with the final pHs being between 6.5 and 7.2. Individual Crimson Seedless grape clusters were selected and tagged, with 20 tagged clusters per treatment. The solutions were applied as cluster-directed sprays using a trigger sprayer at 15 to 20 milliliters per cluster which ensured good coverage of the grapes. The treatments were applied on day 0 and day 11 of the trial. Periodically during the trial, the grape clusters were evaluated for color development by visual ratings over a six-week period and the coloration was graded on a 1 to 8 grading scale, where a rating of 1 has very little or no red color and a rating of 8 has a deep or dark red color.

[2] = system: Crimson Seedless grape clusters; assay: Field study, Example 1: anthocyanin content of berries harvested about four weeks after treatment; conditions: berries harvested about four weeks after treatment
Method: as §1, §2

CC1=CC(=O)CC(C)(C)[C@@]1(O)/C=C/C(C)=C/C(=O)O [S-ABA, K^+ salt, (S)-abscisic acid]
Coloring Ratings, % of the berries with marketable color ([1]; 200 ppm, 3-4 mg/cluster, 60-80 grams/acre, 7 DAT): 41% | Coloring Ratings, % of the berries with marketable color ([1]; 200 ppm, 3-4 mg/cluster, 60-80 grams/acre, 14 DAT): 78% | Coloring Ratings, % of the berries with marketable color ([1]; 200 ppm, 3-4 mg/cluster, 60-80 grams/acre, 27 DAT): 84% | Coloring Ratings, % of the berries with marketable color ([1]; 200 ppm, 3-4 mg/cluster, 60-80 grams/acre, 33 DAT): 88% | Coloring Ratings, % of the berries with marketable color ([1]; 200 ppm, 3-4 mg/cluster, 60-80 grams/acre, 43 DAT): 89% | Coloring Ratings, % of the berries with marketable color ([1]; 400 ppm, 6-8 mg/cluster, 120-160 grams/acre, 7 DAT): 47% | Coloring Ratings, % of the berries with marketable color ([1]; 400 ppm, 6-8 mg/cluster, 120-160 grams/acre, 14 DAT): 80% | Coloring Ratings, % of the berries with marketable color ([1]; 400 ppm, 6-8 mg/cluster, 120-160 grams/acre, 27 DAT): 85% | Coloring Ratings, % of the berries with marketable color ([1]; 400 ppm, 6-8 mg/cluster, 120-160 grams/acre, 33 DAT): 88% | Coloring Ratings, % of the berries with marketable color ([1]; 400 ppm, 6-8 mg/cluster, 120-160 grams/acre, 43 DAT): 91% | time to reach ~90% marketable coloration ([1]; 400 ppm, 6 to 8 mg per cluster): five weeks; also recorded: five or six weeks | Color Ratings (Crimson Seedless grapes; 200 ppm, 3-4 mg/cluster, 60-80 g/acre, 3 DAT): 1 | Color Ratings (Crimson Seedless grapes; 200 ppm, 3-4 mg/cluster, 60-80 g/acre, 10 DAT): 2.2 | Color Ratings (Crimson Seedless grapes; 200 ppm, 3-4 mg/cluster, 60-80 g/acre, 14 DAT): 2.6 | Color Ratings (Crimson Seedless grapes; 200 ppm, 3-4 mg/cluster, 60-80 g/acre, 21 DAT): 4.1 | Color Ratings (Crimson Seedless grapes; 200 ppm, 3-4 mg/cluster, 60-80 g/acre, 31 DAT): 5.1 | Color Ratings (Crimson Seedless grapes; 200 ppm, 3-4 mg/cluster, 60-80 g/acre, 41 DAT (end of six-week evaluation)): 5.4 | Color Ratings (Crimson Seedless grapes; 400 ppm, 6-8 mg/cluster, 120-160 g/acre, 3 DAT): 1 | Color Ratings (Crimson Seedless grapes; 400 ppm, 6-8 mg/cluster, 120-160 g/acre, 10 DAT): 2.9 | Color Ratings (Crimson Seedless grapes; 400 ppm, 6-8 mg/cluster, 120-160 g/acre, 14 DAT): 3.5 | Color Ratings (Crimson Seedless grapes; 400 ppm, 6-8 mg/cluster, 120-160 g/acre, 21 DAT): 4.5 | Color Ratings (Crimson Seedless grapes; 400 ppm, 6-8 mg/cluster, 120-160 g/acre, 31 DAT): 5.9 | Color Ratings (Crimson Seedless grapes; 400 ppm, 6-8 mg/cluster, 120-160 g/acre, 41 DAT (end of six-week evaluation)): 6.4 | red color development in comparison with the untreated control (Crimson Seedless grapes): dose-dependent accelerated red color development | Total Anthocyanin Content ([2]; 3-4 mg/cluster (200 ppm, 15-20 mL)): 73 mg/L | Total Anthocyanin Content ([2]; 6-8 mg/cluster (400 ppm, 15-20 mL)): 83 mg/L

C#CCC1=C(C)[C@](O)(/C=C/C(C)=C\C(=O)O)C(C)(C)CC1=O [3′-propargyl-(S)-ABA, K^+ salt, (2Z,4E)-5-((S)-1-hydroxy-2,6,6-trimethyl-4-oxo-3-(prop-2-yn-1-yl)cyclohex-2-en-1-yl)-3-methylpenta-2,4-dienoic acid]
Color Ratings (Crimson Seedless grapes; 4 ppm, 0.06-0.08 mg/cluster, 1.2-1.6 g/acre, 3 DAT): 1.1 | Color Ratings (Crimson Seedless grapes; 4 ppm, 0.06-0.08 mg/cluster, 1.2-1.6 g/acre, 10 DAT): 1.3 | Color Ratings (Crimson Seedless grapes; 4 ppm, 0.06-0.08 mg/cluster, 1.2-1.6 g/acre, 14 DAT): 1.5 | Color Ratings (Crimson Seedless grapes; 4 ppm, 0.06-0.08 mg/cluster, 1.2-1.6 g/acre, 21 DAT): 1.9 | Color Ratings (Crimson Seedless grapes; 4 ppm, 0.06-0.08 mg/cluster, 1.2-1.6 g/acre, 31 DAT): 2.4 | Color Ratings (Crimson Seedless grapes; 4 ppm, 0.06-0.08 mg/cluster, 1.2-1.6 g/acre, 41 DAT): 2.4 | Color Ratings (Crimson Seedless grapes; 20 ppm, 6-8 g/acre, 3 DAT): 1.1 | Color Ratings (Crimson Seedless grapes; 20 ppm, 6-8 g/acre, 10 DAT): 1.5 | Color Ratings (Crimson Seedless grapes; 20 ppm, 6-8 g/acre, 14 DAT): 1.8 | Color Ratings (Crimson Seedless grapes; 20 ppm, 6-8 g/acre, 21 DAT): 2.2 | Color Ratings (Crimson Seedless grapes; 20 ppm, 6-8 g/acre, 31 DAT): 2.9 | Color Ratings (Crimson Seedless grapes; 20 ppm, 6-8 g/acre, 41 DAT): 3.1 | Color Ratings (Crimson Seedless grapes; 40 ppm, 0.6-0.8 mg/cluster, 12-16 g/acre, 3 DAT): 1.1 | Color Ratings (Crimson Seedless grapes; 40 ppm, 0.6-0.8 mg/cluster, 12-16 g/acre, 10 DAT): 1.5 | Color Ratings (Crimson Seedless grapes; 40 ppm, 0.6-0.8 mg/cluster, 12-16 g/acre, 14 DAT): 1.8 | Color Ratings (Crimson Seedless grapes; 40 ppm, 0.6-0.8 mg/cluster, 12-16 g/acre, 21 DAT): 2.6 | Color Ratings (Crimson Seedless grapes; 40 ppm, 0.6-0.8 mg/cluster, 12-16 g/acre, 31 DAT): 3.1 | Color Ratings (Crimson Seedless grapes; 40 ppm, 0.6-0.8 mg/cluster, 12-16 g/acre, 41 DAT (end of six-week evaluation)): 3.3 | potency in promoting red color development compared with another compound (Crimson Seedless grapes; Crimson Seedless grapes): less potent than 3′-methyl-(S)-ABA | red color development in comparison with the untreated control (Crimson Seedless grapes): accelerated coloration
